The text below walks through data of PubChem BioAssay (NCI).

Some test systems named below: HOP-62 NSCLC; NCI-H226 lung; BT-549 breast; SK-MEL-2 melanoma; HS 578T breast; DU-145 prostate; SK-MEL-5 melanoma; NCI-H460 lung; NCI-H23 lung; IGROV1 ovarian.
Holding throughout (experiment): NCI anticancer screen, dose series, 48 h

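48-hour exposure; five concentrations; linearly interpolated endpoints. TGI marks complete inhibition of growth.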

As for `COc1nc2c(c(=O)n1C)N(C(C)=O)C1C(N2)OCC(OC(C)=O)C1OC(C)=O` (stereo not given), the TGI in the assay with HOP-62 NSCLC, in the assay with NCI-H226 lung, in the assay on BT-549 breast, in the assay on SK-MEL-2 melanoma, in the assay with HS 578T breast and in the assay on DU-145 prostate was over 10 µM in each case. Further, the TGI in the assay on SK-MEL-5 melanoma, with NCI-H460 lung, with NCI-H23 lung and in the assay on IGROV1 ovarian was over 10 µM in each case.

As for `Cc1ccc(-c2nc3ccc(Cl)cc3[nH]2)cc1`, the TGI in the assay with HOP-62 NSCLC, in the assay on NCI-H226 lung, with BT-549 breast, in the assay with SK-MEL-2 melanoma, in the assay with HS 578T breast and in the assay on DU-145 prostate was over 100 µM in each case. Moreover, the TGI with SK-MEL-5 melanoma, in the assay with NCI-H460 lung, in the assay with NCI-H23 lung and in the assay with IGROV1 ovarian was over 100 µM throughout.

Turning to `O=C(N=S(NC(=O)c1ccccc1)C(Cl)(Cl)Cl)c1ccccc1` (stereo not given), the TGI was over 31.6 µM in the assay with HOP-62 NSCLC; over 58.6 µM in the assay on NCI-H226 lung; 32.4 µM in the assay on BT-549 breast; 70.1 µM in the assay on SK-MEL-2 melanoma; 99.5 µM in the assay on HS 578T breast; over 100 µM in the assay with DU-145 prostate. For the same compound, the TGI in the assay on SK-MEL-5 melanoma was 20.5 µM; in the assay with NCI-H460 lung, over 70.9 µM; in the assay on NCI-H23 lung, 30 µM; with IGROV1 ovarian, over 49 µM.

As to `CCCCCCNC(=O)c1cnc(Cl)cn1`, the TGI in the assay with HOP-62 NSCLC came to 34.3 µM; with NCI-H226 lung, 21.7 µM; in the assay on BT-549 breast it was 82.4 µM; in the assay on SK-MEL-2 melanoma, 31 µM; in the assay with HS 578T breast, 44.4 µM; in the assay with DU-145 prostate it was 29.6 µM. In addition, the TGI was 30.4 µM in the assay on SK-MEL-5 melanoma, 37.3 µM with NCI-H460 lung, 23.5 µM with NCI-H23 lung and 22.8 µM in the assay with IGROV1 ovarian.

Consider `CC1CCCc2c(C#N)c(N)nc(-c3ccc(Cl)cc3)c21` (stereo not given), for which the TGI in the assay on HOP-62 NSCLC was 24.8 µM; in the assay on NCI-H226 lung it was 43.3 µM; in the assay on BT-549 breast, over 100 µM; in the assay on SK-MEL-2 melanoma, 44.4 µM; in the assay with HS 578T breast it was over 100 µM; with DU-145 prostate, over 100 µM. Besides, the TGI was 35.9 µM in the assay on SK-MEL-5 melanoma, 59 µM in the assay with NCI-H460 lung, 93.7 µM in the assay with NCI-H23 lung and 56.8 µM in the assay on IGROV1 ovarian.

Turning to `C=CCOC(=O)/C(=C\c1ccc(OC)c(OC)c1)c1ccc(OC)c(OC)c1`, the TGI with HOP-62 NSCLC, in the assay on NCI-H226 lung, in the assay with BT-549 breast, in the assay with SK-MEL-2 melanoma, in the assay on HS 578T breast and in the assay with DU-145 prostate was over 100 µM throughout. Moreover, the TGI in the assay with SK-MEL-5 melanoma, in the assay on NCI-H460 lung, in the assay on NCI-H23 lung and in the assay with IGROV1 ovarian was over 100 µM each time.

As for `COC(=O)c1c2n(c3ccccc13)C[C@H]1OC(C)(C)O[C@@H]21`, the TGI in the assay with HOP-62 NSCLC, with NCI-H226 lung, in the assay with BT-549 breast, with SK-MEL-2 melanoma, in the assay on HS 578T breast and in the assay with DU-145 prostate was over 100 µM in each case. Further, the TGI in the assay on SK-MEL-5 melanoma, with NCI-H460 lung, with NCI-H23 lung and with IGROV1 ovarian was over 100 µM throughout.

Regarding `COC(=O)c1ccc2c(O)c(O)ccc2c1`, the TGI was 32.9 µM in the assay on HOP-62 NSCLC; 46.1 µM with NCI-H226 lung; 27.2 µM in the assay on BT-549 breast; 13.8 µM with SK-MEL-2 melanoma; over 69.2 µM in the assay with HS 578T breast; 30.1 µM in the assay on DU-145 prostate. Besides, the TGI was determined as 8.58 µM with SK-MEL-5 melanoma, 39.3 µM with NCI-H460 lung, 22.7 µM with NCI-H23 lung and 31.6 µM in the assay with IGROV1 ovarian.

Turning to `CC1=C2C(=O)c3ccccc3C(=O)[C@H]2[C@H]2CCO[C@H]2O1`, the TGI in the assay with HOP-62 NSCLC was 40 µM; in the assay with NCI-H226 lung, over 100 µM; with BT-549 breast, 28.2 µM; in the assay on SK-MEL-2 melanoma, 36.6 µM; with HS 578T breast, over 100 µM; in the assay on DU-145 prostate it was 47 µM. Besides, the TGI in the assay with SK-MEL-5 melanoma worked out at 30.8 µM; in the assay with NCI-H460 lung, 45.1 µM; in the assay on NCI-H23 lung it was 45.6 µM; in the assay on IGROV1 ovarian, 31.1 µM.

With `Cc1cc(=O)[nH]c(NN2C(Cl)C(=O)C2c2ccc(Cl)cc2)n1` (stereo not given), the TGI with HOP-62 NSCLC came to 48.6 µM; in the assay with NCI-H226 lung, 42 µM; in the assay on BT-549 breast, 86.9 µM; in the assay on SK-MEL-2 melanoma, 46.4 µM; in the assay on HS 578T breast, 93.5 µM; in the assay on DU-145 prostate it was 66.6 µM. Moreover, the TGI with SK-MEL-5 melanoma came to 25.7 µM; with NCI-H460 lung it was 31.1 µM; in the assay on NCI-H23 lung, 39.1 µM; in the assay on IGROV1 ovarian it was 15.1 µM.

Consider `COc1ccccc1NC(=O)/C(Cc1nc2ccc([N+](=O)[O-])cc2[nH]c1=O)=N\NC(=O)C[N+](C)(C)C`, for which the TGI in the assay on HOP-62 NSCLC, in the assay with NCI-H226 lung, in the assay on BT-549 breast, with SK-MEL-2 melanoma, in the assay on HS 578T breast and in the assay with DU-145 prostate was over 100 µM throughout. Also, the TGI with SK-MEL-5 melanoma, in the assay on NCI-H460 lung, with NCI-H23 lung and in the assay with IGROV1 ovarian was over 100 µM throughout.
